Results taken from US11980613B2, “Methods for reversing HIV latency using BAF complex modulating compounds” (priority 2018, dated 2024).
“Also recorded” adds a separate entry of the source.

Assays:
[1] = tested on: Bmi1-luciferase reporter cell line; assay: Bmi1-luciferase reporter assay (screen for inhibitors of BAF-mediated transcriptional repression); format: cell-based, mouse; conditions: grading in words
Protocol: Low passage mESCs from 129 mice (20 million, p10) were electroporated with 40 μg of a linearized construct consisting of 2 kb homology upstream of the Bmi1 locus, firefly luciferase at exon 1 of Bmi1 followed by loxP neo and a 6 kb 3′ homology arm with thymidine kinase outside the homology arms. The cells were plated on 10 gelatin treated plates (60 mm) of irradiated neo resistant MEFs and selected with G418 and ganciclovir for 5 days. 384 colonies were selected, trypsinized and replated in gelatin treated 24-well plates for expansion. The cells were split and DNA was isolated for digestions with EcoRI or BamHI. We confirmed the successful homologous recombination in 7 out 384 colonies using Southern blot analysis at both the 5′ (EcoRI) and 3′ (BamHI) end (see Table S2 of Marian et al., “Small Molecule Targeting of Specific BAF (mSWI/SNF) Complexes for HIV Latency Reversal,” Cell Chem. Biol. (Dec. 20, 2018) 25: 1443-1445). We deleted the neomycin cassette using transfected Cre recombinase and confirmed the excision at all clones using a second round of Southern blot analysis at the 3′ end (BamHI).
3. Compound Treatment: 10,000 cells in 30 μL ESC media were plated in white 384 well CellBind plates. The cells were cultured in a 37° C., 5% CO2 incubator for 24 h and 100 nL/well of 0.75 mM of positive control (Pubchem SID: 85814977) or 100 nL/well of 3.75 mM compound library (primary screen) was added via pin transfer into plates. There was no effect on assay readout at DMSO concentrations up to 0.5%. The cells were cultured in a 37° C., 5% CO2 incubator for 24 h for luciferase reporter assay and 18 h for qRT-PCR assay. 4. Luciferase assay: (PubChem AID 602393 primary, PubChem AID 651717 confirmatory.) The assay plates were removed from the incubator and equilibrates for 10 minutes to room temperature. Promega SteadyGlo® solution (10 μL/well) was added to each well of the assay plates. The assay plates were mixed at 1000 rpm for 15 seconds and then incubated for 10 minutes at room temperature. The luciferase levels were read on a Perkin Elmer Envision in Ultra Sensitive Luminescence mode. Signals remained stable up to 2 hours. 5. EqRT-PCR secondary screen (PubChem AID 743180, 743177, 743176) The qRTPCR screen was performed as published^54. In brief, 5,000 ES cells were plated on gelatin-coated 384-well tissue culture plates and cultured in a 37C, 5% CO2 incubator. 24 h later, hit compounds in 100 nL DMSO were treated at eight different doses. 18 h after compound treatment cells were washed two times with 100 μL PBS and all excess PBS was removed by centrifuging the plates upside down at 1000 rpm. The Ambion® Cells-to-Ct kit was used to generate cDNA. In brief, the cells were lysed in the plate in 10 μL lysis buffer containing DNase for 10 minutes and quenched with 1 μL lysis stop buffer. The lysate (2 μL) was added to 5 μL RT reaction buffer (2×), 2.5 μL nuclease-free water and 0.5 μL Reverse transcriptase (20×) and incubated at 37° C. for 60 minutes and 95° C. for 1 minute to generate 10 μL of cDNA. cDNA (1 μL) was used in each 5 μL qPCR reaction with Roche master mix and TaqMan probes (Applied Biosystems) for Bmi1-FAM (Mm00776122_gH), Ring1a-FAM (Mm01278940_m1/4331182), or Fgf4-FAM (Mm00438916_g1/4351372) alongside actin-VIC (4352341E) for a loading control. The qPCR was run accordingly: 95° C. for 10 minutes Then 55 cycles of: 95° C. for 10 seconds followed by 60° C. for 30 seconds. The fold increase in transcription was calculated using the ΔΔCT method^84. 6. Viability Assays (PubChem AID: 743188, 743189, 743190, 1053139, 1053140, 1053141)

[2] = tested on: latent HIV-1 in CD4+ T cells from c-ART treated HIV-1 infected patients; assay: HIV latency reversal from patient samples (cell associated HIV Pol mRNA); format: cell-based, human
Protocol: 23. HIV latency reversal from patient samples: All patients were older than 18 years, c-ART treated for at least 3 years, and their viral loads were below 50 copies/ml for more than 12 months with no blips in the past two years. CD4+ T cells from aviremic HIV+ patients were isolated as described previously^55 with minor modifications. Briefly, frozen PBMCs were cultured in RPMI medium over-night to recover. Then next day CD4+ T cells were isolated twice (enriched CD4+ T cells were subjected to a second round of CD4+ T cell enrichment) and left for 6 hrs to recover. Three million cells were treated with DMSO, 10 μM BRD-K80443127, 200 nM Prostratin, 10 μM BRD-K80443127 and 200 nM prostratin, and αCD3/CD28 magnetic beads (at cell:bead ration 1:1) as a positive control in triplicate. After 24 hours cells were lysed in TRIreagent (Sigma), total RNA was isolated with Total RNA Zol-Out (A&A Biotechnology) kit and cDNA was synthetized using random primers and Superscript II Reverse Transcriptase (Life Technologies). Detection of cellular associated pol RNA was performed as described previously (Pol: For […] (SEQ ID NO:15), Rev-[…] (SEQ ID NO: 16))^55. This study was conducted in accordance with the ethical principles of the Declaration of Helsinki. HIV-1 infected patient volunteers were informed and provided signed consent to participate in the study. The study protocol was approved by The Netherlands Medical Ethics Committee (MEC-2012-583). cDNA generated from control and 10 μM BRD-K80443127 treated samples was used to assess expression of BAF target genes biomarker genes-p21 and C-MYC.

Compound: CO[C@H]1CN(C)C(=O)c2cc(NC(=O)OC(C)C)ccc2OC[C@H](C)N(Cc2ccc(-c3ccccn3)cc2)C[C@@H]1C [BRD-K80443127]
- activity in the Bmi1 luciferase reporter assays [1]: high activity
- cell associated HIV mRNA (Pol), response ([2]; Patient 1 (one patient), single agents, 24 hours): responded; also recorded: significant increase
- potentiation of prostratin activity ([2]; all three patients): significant potentiation of prostratin activity
- cell associated HIV-1 POL ([2]; patient 2 and 3, 24 hours): did not result in a significant increase
